Data reported in patent US20220280589A1, “METHOD FOR TREATING ALZHEIMER'S DISEASE BY REGULATING AMINO ACID LEVEL” (SHANGHAI GREEN VALLEY PHARMACEUTICAL CO., LTD., priority 2019, published 2022).
“Also recorded” adds a separate entry of the source.

Experiments:
[1] = system: C57 mice; test: Intraperitoneal injection of phenylalanine and isoleucine, blood Th1 cells by flow cytometry; format: in vivo, mouse; conditions: WT (C57) mice, intraperitoneal injection 50 mg/kg for 4 days
Description: (g) Blood Th1 cell changes after 4-day intraperitoneal (i.p.) injection of phenylalanine and isoleucine (n=6). ***P<0.001 by one-way ANOVA (F (2, 21)=101.8).
Tg mice and co-housed WT mice (corresponding WT mice generated by mating Tg mice and C57 mice) were housed in the same cage after birth. WT mice (C57) were housed in separate cages to avoid cross-transfer of microbiota. All mice were kept in a 23° C. room with a 12-hour (h) light-dark cycle. Mice were randomly assigned to different groups before treatment. For time course analysis of Tg mice, male and female Tg mice were sacrificed at 2, 3, 5, 7 and 9 months of age. The mouse brain was collected and stained for immune cell analysis and cytokine analysis. Before the mice were sacrificed, feces were collected for gut microbiota analysis. […] All mouse movements that occur in PhenoTyper (HomeCage) are recorded by a computerized tracking system, which calculates the time and number of entrances required to reach 80% of the performance standard (Noldus, Ethovision). […]
Mice were anesthetized, blood samples were collected into EDTA-containing tubes, and red blood cells were removed using 1×red blood lysis buffer. […] All samples were counted and adjusted to a density of 2-3×10^6/100 μL, labeled with a Live/Dead kit for 30 min, and then centrifuged at 500×g for 3 min at 4° C. […]

[2] = system: naive CD4^+ T cells; test: In vitro differentiation and proliferation induced by phenylalanine and isoleucine; format: cell-based, mouse; conditions: 3 days; for Th1 cell proliferation: amino acid (1 mM) added to CellTrace-stained naive CD4^+ T cell culture; for Th0 cell differentiation into Th1 cells: amino acid (1 mM) added to naive CD4^+ T cell culture
Description: (e) The effects of OM1 on the differentiation of naive CD4^+ T cells (Th0 cells) to Th1 cells induced by phenylalanine and isoleucine. Naive CD4^+ T cells were cultured for 3 days with/without OM1 in the presence of phenylalanine (1 mM) or isoleucine (1 mM). The frequency of Th1 (CD4^+IFN-γ^+) cells was tested by flow cytometry. The data are presented as mean±standard error of the mean (mean±sem); n=3 replicates per group. Left, *P<0.05, **P<0.01 by one-way ANOVA (F (2, 6)=15.64). Right, *P<0.05, **P<0.01 by one-way ANOVA (F (2, 6)=10.35).
(f) The effects of OM1 on the proliferation of Th1 cells induced by phenylalanine and isoleucine. The naive CD4^+ T cells were stained with CellTrace and cultured for 3 days with/without OM1 in the presence of phenylalanine (1 mM) and isoleucine (1 mM). The density of CellTrace fluorescence in Th1 (CD4^+IFN-γ^+) cells was tested by flow cytometry (see Methods). The data are presented as mean±standard error of the mean (mean±sem), n=3. *P<0.05, ***P<0.001 by one-way ANOVA (F (4, 9)=28.34).
Naive CD4^+ T cells were separated from the splenocytes of 8-month-old C57BL/6 female mice using the Naive CD4^+ T cell Isolation Kit (Stem Cell, #19765), and the cells were stained with CellTrace (Thermo Fisher, #C34557). A total of 1×10^5 cells/well in 0.2 mL of RPMI-1640 medium were plated in 96-well plates, and the culture medium was supplemented with cytokines or blocking antibodies. Th0: 10 ng/mL mIL-2; Th1:10 ng/mL mIL-2, 5000 ng/mL 11B11. Phenylalanine (final concentration, 2 mmol/L), isoleucine (final concentration, 2 mmol/L) and OM1 (final concentration, 100 μg/mL) were added into the indicated wells, respectively. After incubation at 37° C. in 5% CO2 for 5 days, cells were acquired on a BD Fortessa cytometer, and data were analyzed using FlowJo software.

[3] = system: 5XFAD transgenic (Tg) mice; test: Flow cytometry of brain homogenate immune cells (Th1, M1 microglia); format: in vivo, mouse; conditions: 6-month-old 5XFAD mice, 50 mg/kg intraperitoneal injection every day for one month, versus vehicle
Description: Tg mice and co-housed WT mice (corresponding WT mice generated by mating Tg mice and C57 mice) were housed in the same cage after birth. WT mice (C57) were housed in separate cages to avoid cross-transfer of microbiota. All mice were kept in a 23° C. room with a 12-hour (h) light-dark cycle. Mice were randomly assigned to different groups before treatment. For time course analysis of Tg mice, male and female Tg mice were sacrificed at 2, 3, 5, 7 and 9 months of age. The mouse brain was collected and stained for immune cell analysis and cytokine analysis. […] The brains and feces of the mice were then used for different analyses.
Mice were anesthetized, blood samples were collected into EDTA-containing tubes, and red blood cells were removed using 1×red blood lysis buffer. Before tissue collection, the brains were perfused with ice-cold PBS to avoid sampling the circulating blood immune cells, and the brains were removed, chopped into pieces and dissected according to the introduction of the Adult Brain Dissociation Kit (Miltenyi, Cat No. 130-107-677) using the gentleMACS dissociator (Miltenyi Biotec). The brain homogenate was filtered through a 70-μm cell strainer and centrifuged at 300×g for 5 min at 4° C. […] All samples were counted and adjusted to a density of 2-3×10^6/100 μL, labeled with a Live/Dead kit for 30 min, and then centrifuged at 500×g for 3 min at 4° C. […]

[4] = target: T1, SLC7A5 (Mus musculus, UniProt Q9Z127); test: Uptake of ^13C-labeled phenylalanine by CD4^+ T cells; format: cell-based; conditions: ^13C-phenylalanine 5 mmol/L, 0.5 h
T1 construct: endogenous in cells; host or cells: Primary CD4+ T cells (naive/Th0 and IL-12-induced Th1) from splenocytes of C57BL/6 mice
T1 sequence (Q9Z127 whole entry): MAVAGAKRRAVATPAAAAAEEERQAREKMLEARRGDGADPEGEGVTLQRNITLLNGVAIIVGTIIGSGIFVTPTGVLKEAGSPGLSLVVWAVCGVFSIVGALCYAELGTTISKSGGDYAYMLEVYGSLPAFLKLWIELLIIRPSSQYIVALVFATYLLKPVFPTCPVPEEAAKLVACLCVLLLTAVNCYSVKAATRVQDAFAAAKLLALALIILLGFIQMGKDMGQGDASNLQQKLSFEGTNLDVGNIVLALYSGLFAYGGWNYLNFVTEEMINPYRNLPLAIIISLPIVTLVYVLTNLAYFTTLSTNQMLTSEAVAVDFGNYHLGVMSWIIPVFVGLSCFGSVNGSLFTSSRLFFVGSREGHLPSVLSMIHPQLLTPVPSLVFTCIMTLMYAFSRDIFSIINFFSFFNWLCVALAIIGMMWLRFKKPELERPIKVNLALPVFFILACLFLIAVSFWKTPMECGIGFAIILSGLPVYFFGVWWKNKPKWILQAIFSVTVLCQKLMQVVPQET
T1 sequence (P10852 whole entry partner): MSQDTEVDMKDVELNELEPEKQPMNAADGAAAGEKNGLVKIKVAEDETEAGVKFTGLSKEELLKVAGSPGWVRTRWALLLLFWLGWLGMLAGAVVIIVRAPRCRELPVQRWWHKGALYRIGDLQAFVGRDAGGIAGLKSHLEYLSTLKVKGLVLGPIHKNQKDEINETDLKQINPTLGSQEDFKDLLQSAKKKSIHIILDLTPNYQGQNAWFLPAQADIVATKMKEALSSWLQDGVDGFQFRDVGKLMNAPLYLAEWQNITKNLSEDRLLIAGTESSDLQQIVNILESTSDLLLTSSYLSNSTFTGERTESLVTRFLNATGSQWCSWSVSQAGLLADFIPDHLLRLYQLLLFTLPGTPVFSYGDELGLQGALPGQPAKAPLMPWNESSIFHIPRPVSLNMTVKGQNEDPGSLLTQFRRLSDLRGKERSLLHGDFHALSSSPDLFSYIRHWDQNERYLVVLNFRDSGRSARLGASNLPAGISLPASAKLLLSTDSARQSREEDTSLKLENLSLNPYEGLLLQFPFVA
Description: (k) The uptake of phenylalanine by the naïve CD4 T cells. The naïve CD4 T cells were cultured with/without ^13C-labeled phenylalanine for 0.5 h. Mass Spectrometry of phenylalanine-related compounds were tested. ^13C-Phenylalanine is administered at a concentration of 5 mmol/L, and is taken up by an L-type amino acid transporter.
Naive CD4^+ T cells were separated from the splenocytes of 8-month-old C57BL/6 female mice using the Naive CD4^+ T cell Isolation Kit (Stem Cell, Cat No. 19765) and were induced to Th1 differentiation by 20 ng/mL IL-12. After 3 days, a total of 5 ×10^5 cells/well Th1 cells and Th0 cells in 0.5 mL of RPMI-1640 medium were plated into 48-well plates. ^13C-labeled phenylalanine and 5 mM amino transporter inhibitor BCH were added into indicated wells. After 0.5 h, cells were collected and washed twice with ice-cold D-PBS. 50 μL deionized water was added and cells were lysed through freezing and thawing twice at −80° C. The cell lysate was centrifuged at 12000×g for 10 min and ^13 C-labeled phenylalanine in the supernatant was analyzed by Mass spectrometry.

uptake of ^13C-labeled phenylalanine by CD4^+ T cells [4] | Compound | Th1 cell count in the blood [1] | Th1 cell proliferation [2] | Th0 cell differentiation into Th1 cells [2] | proportion of pro-inflammatory Th1 cells in the brain [3]
– | N[C@@H](Cc1ccccc1)C(=O)O [phenylalanine] | increased significantly | increased | increased | –
blocked | Nc1cc(COc2c(Cl)cc(C[C@H](N)C(=O)O)cc2Cl)c2oc(-c3ccccc3)nc2c1 [JPH203] | – | – | – | effectively inhibits the proportion of Th1 cells in the brain; also recorded: significantly downregulated the proportion of pro-inflammatory Th1 cells in the mouse brain
– | CC[C@H](C)[C@H](N)C(=O)O [isoleucine] | increased significantly | increased | increased | –
